# Measured values from patent US20120014950A1, “Antibodies That Specifically Bind to DR3” (Xencor, Inc., priority 2010, published 2012).
# Legend:
# [1] = test system: collagen induced arthritis (CIA) mice; experiment: Murine collagen induced arthritis (CIA) model; assay type: in vivo, DBA/1JLacJ mice; conditions: i.p., 200 μg (dexamethasone 50 μg)
# Experimental: In general CIA was induced using the following protocol. Male DBA/1JLacJ mice (8-10 weeks) were injected intradermally (i.d.) at the base of the tail with […] of type II bovine collagen (CII) and complete Freund's adjuvant (CFA) at a final concentration of 4 mg/ml on Day 1. Mice were given a second injection i.d. with CII and CFA on Day 21. On days 21, 28, 35, and 42, mice were treated prophylactically with 200 μg intraperitoneal (i.p.) of the therapeutic molecules, anti-TNF-α antibody (R&D systems, cat #AB-410-NA) or D06-Fab-MSA. In addition, a control group of mice was not treated with a therapeutic molecule (“No Treatment”) and a second control group was treated with 50 μg dexamethasone i.p. every other day (e.o.d.) (“Dexamethasone”). The animals were scored every other day until the experiment was terminated on Day 46.
# In a separate experiment, on days 21, 28, 35, and 42, CIA-mice were treated prophylactically with 200 μg intraperitoneal (i.p.) of either 2D9-Fab-MSA, or 5D10-Fab-MSA. In addition, a control group of mice was treated with an isotype control antibody (IgG1). The animals were scored every other day until the experiment was terminated on Day 46. Clinical scores were determined as above.
# Histology was preformed to further determine the degree of inflammation as well as potential bone erosion in these animals. […]
# DR3 receptor = biological target: T1, DR3 receptor (Homo sapiens, UniProt Q93038); experiment: TF-1 assay (cell viability, cycloheximide, Cell Titer Glo); assay type: cell-based; conditions: TF-1 cells with cycloheximide; luminescence
# T1 construct: endogenous in cells; host or cells: TF-1 (premyeloid)
# T1 sequence (Q93038 25-417): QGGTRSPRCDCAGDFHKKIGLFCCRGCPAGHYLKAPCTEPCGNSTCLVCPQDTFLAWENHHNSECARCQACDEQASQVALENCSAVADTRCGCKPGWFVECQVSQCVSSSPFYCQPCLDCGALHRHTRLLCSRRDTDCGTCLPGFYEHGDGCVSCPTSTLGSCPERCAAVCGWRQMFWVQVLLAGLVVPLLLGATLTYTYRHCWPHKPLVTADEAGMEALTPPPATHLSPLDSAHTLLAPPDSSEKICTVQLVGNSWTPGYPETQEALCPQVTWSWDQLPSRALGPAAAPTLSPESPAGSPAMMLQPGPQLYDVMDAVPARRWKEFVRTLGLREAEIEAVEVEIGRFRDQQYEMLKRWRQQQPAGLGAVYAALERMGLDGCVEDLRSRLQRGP
Compound,% Arthritis Incidence at Day 42 [1],"TF-1 cell viability / apoptosis induction (agonist, TL1A-like activity) (DR3 receptor)"
C[C@@H]1C[C@H]2[C@@H]3CCC4=CC(=O)C=C[C@]4(C)[C@@]3(F)[C@@H](O)C[C@]2(C)[C@@]1(O)C(=O)CO [Dexamethasone],0%,–
"TL1A: human TL1A (TNFSF15), the natural ligand for DR3; positive control [reference compound]",–,induce apoptosis
